What was measured:
[1] = system: splenic pDCs (CD45+PDCA-1+CD45R/B220+); test: Endostatin expression in pDCs of cultured splenic cells (flow cytometry); type: cell-based, mouse; settings: splenic cells of C57BL/6 mice, 1 μg/ml, 24 hours
Description: Spleens of wildtype C57BL/6 mice were harvested and subjected to mechanical disruption. Samples were then filtered and underwent RBC lysis via incubation with ammonium chloride RBC lysis buffer (ACK; Biofluids, Rockville, Md.). Next, isolated splenic cells were cultured in RPMI supplemented with 10% heat-inactivated fetal bovine serum (FBS; Gemini Bioproducts, Woodland, Calif.), and 1% penicillin/streptomycin (Life Technologies, Carlsbad, Calif.). Cells were treated with 1 μg/ml Imiquimod (TLR7 agonist; InvivoGen, San Diego, Calif.), CpG-ODN (TLR9 agonist; InvivoGen), or PBS control for 24 hours. The experiment was done in triplicate.
After 24 hours of culture, isolated splenic cells were subjected to flow cytometry. In brief, cells were washed and then fixed and permeabilized using Foxp3/Transcription Factor Fixation/Permeabilization Reagent (eBioscience, San Diego, Calif.) according to the manufacturer's instructions. Cells were then washed twice with permeabilization buffer (eBioscience), blocked in 1% anti-CD16/CD32 FcR mAb at 4° C. in permeabilization buffer, and subsequently labeled with combinations of primary antibodies against CD45 (Biolegend, San Diego, Calif.), PDCA-1 (Biolegend), CD45R/B220 (Biolegend), Endostain (Abcam, Cambridge, Mass.) or their respective isotype controls for 30 minutes at 4° C. in the dark. After washing, cells were labeled with fluorochrome-conjugated anti-rabbit secondary antibody (for Endostatin) for 30 minutes at 4° C. All samples were washed and reconstituted in permeabilization before data acquisition with a BD LSR II flow cytometer (BD Biosciences). Data were analyzed with FlowJo V9.2 (FlowJo, LLC).

sorted splenic pDCs [2] = test: Phospho-CREB protein level in cultured splenic pDC lysates (Bio-Plex); type: cell-based, mouse; settings: 3 days
Description: (§1) Isolated splenic pDCs were cultured in 48 well plates (200,000 cells/well) for 3 days with Ham's F-12 Nutrient Mix (Gibco, Carlsbad, Calif.) supplemented with 10% heat inactivated fetal bovine serum (FBS; Gemini Bioproducts, Woodland, Calif.), and 1% penicillin/streptomycin (Life Technologies, Carlsbad, Calif.). Cells were treated with 1, 5, and 10 μg/ml Imiquimod (InvivoGen, San Diego, Calif.) or PBS upon seeding. In another set of experiments, cells were pretreated with 10 μM SB 203580 (p38 MAP kinase inhibitor; Sigma-Aldrich) or PBS 1 hour prior to addition of 1 μg/ml Imiquimod (InvivoGen) or PBS. Cells were harvested for RNA or protein extraction 3 days after culture.
On day 3 following culture of sorted pDCs, cells were lysed via Bio-Plex Pro Cell Signaling Reagent Kit (Biorad) supplemented with phosphotase inhibitor cocktail (Roche) and phospho-CREB and β-actin levels were measured via phospho-CREB and β-actin Bio-Plex assays (Biorad) according to the manufacturer's instructions. Relative phospho-CREB to total β-actin protein levels were normalized to control group.

corneal pDCs = test: Ocular inoculation of TLR7 and 9 agonists, single cell PCR on sorted corneal pDCs; type: in vivo, mouse; settings: 24 hours; for relative mRNA levels of NGF: 10 μg inoculated to cornea of DPE-GFP×RAG1−/− mice
Description: (§2) 8-10 corneas of naïve DPE-GFP×RAG1^−/− mice were excised and digested to yield a single cell suspension as described for flow cytometry experiments. GFP-tagged pDCs were sorted via Moflo Cell Sorter (Beckman Coulter) into a 96-well plate (100 cell/well) and cultured for 24 hours in RPMI (Gibco) supplemented with 10% 10% FBS (Gemini Bioproducts), 1% penicillin/streptomycin (Life Technologies), as well as 3 μg/ml Imiquimod, CpG-ODN, or control ODN (all InvivoGen). RNA isolation and cDNA synthesis were performed via REPLI-g Cell WGA & WTA kit (Qiagen). qRT-PCR was performed as described earlier. In another set of experiments, 4-6 corneas of DPE-GFP×RAG1^−/− mice undergoing inoculation of 10 μg Imiquimod, 10 μg CpG-ODN, or control ODN were harvested 24 hours following inoculation; next, corneas were digested and GFP-tagged pDCs were sorted (100 cell/condition) and underwent single cell PCR.
Following anesthetizing DPE-GFP×RAG1^−/− mice and application of topical proparacaine hydrochloride, central corneal epithelium was debrided using an Algerbrush II corneal rust ring remover with a 0.5-mm burr (Alger Equipment Co, Lago Vista, Tex.). 10 μg Imiquimod (TLR7 agonist; InvivoGen, San Diego, Calif.), 10 μg phosphorothioate CpG 1826 oligonucleotide (CpG-ODN; a synthetic TLR9 agonist; InvivoGen), or control oligonucleotide 1826 (Control ODN; InvivoGen) was topically administered on the eye. 24 hours later corneas were removed to sort corneal GFP-tagged pDCs and single cell PCR experiments.

[3] = system: trigeminal ganglion cells (TGCs); test: Neurite outgrowth of TGCs in mono-culture or pDC co-culture with Imiquimod; type: cell-based, mouse; settings: day 3
Description: Initially, 10-day old pups were euthanized, TGs were excised, chopped into small fragments, and digested in 2 mg/ml Collagenase D (Roche), 2 mg/ml DNAse I (Roche), and 5 mg/ml Dispase II (Sigma-Aldrich) in Hank's Balanced Salt Solution (Gibco) at 37° C. for 30 minutes. Next, after filtering, cells were layered over a 12.5% on 28% Percoll (GE Healthcare, Pittsburgh, Pa.) gradient in L15 media (Gibco) and centrifuged at 1300 g for 10 minutes. Following removing debris in the percoll interface, purified TGCs were recovered from the bottom of the gradient. Next, 10,000 cells/well were seeded in 24 well cell culture plates coated with growth factor reduced Matrigel (Corning Inc, Corning, N.Y.) in Ham's F-12 Nutrient Mix (Gibco) supplemented with 10% heat inactivated FBS (Gemini Bioproducts), 1% penicillin/streptomycin (Life Technologies) and 100 ng/ml NGF (Sigma-Aldrich). After one day of culture, media was changed to a similar media without NGF and sorted pDCs with different numbers were added to transwells. […] TGCs were used for RNA extraction and quantitative real-time PCR.
In another set of experiments, TGCs (10,000 cells/well) were cultured one day to adding 8,000 pDCs/well) to transwells. […] Neurite outgrowth was measured NeuronJ plugin (Meijering et al., Cytometry A 58(2):167-76, 2004) for ImageJ software (NIH, Bethesda, Md.).

sorted corneal pDCs = test: Single cell PCR on sorted corneal pDCs stimulated in vitro; type: cell-based, mouse; settings: 24 hours in vitro, 3 μg/ml
Description: (§3) Corneal epithelium was removed with fine forceps following 30 minutes incubation with PBS containing 20 mM EDTA (Sigma-Aldrich) at 37° C. Next, 4-6 corneal stromas were pooled and lysed using BeadBug Microtube Homogenizer (Benchmark Scientific, Inc., Edison, N.J.). Next, RNA was isolated from the corneal stroma using RNeasy Plus Universal Mini kit (QIAGEN, Germantown, Md.). For isolating RNA from freshly sorted pDCs, purified cDCs, cultured pDCs, and cultured TGCs, RNeasy Plus Micro Kit (QIAGEN) was used. RNA yield was measured by spectroscopy (NanoDrop ND-1000; NanoDrop Technologies, Inc., Wilmington, Del.). cDNA was synthetized using 300 ng of template RNA using QuantiTect Reverse Transcription kit (Qiagen). qRT-PCR was performed using iTaq Universal SYBR Green Supermix (Biorad, Hercules, Calif.) and Eppendorf Mastercycler RealPlex 2 (Eppendorf, Hauppauge, N.Y.) with the primers described below. Relative mRNA levels were measured with ΔΔCT method.
as §2

sorted splenic pDCs [4] = test: NGF and CREB relative mRNA (qRT-PCR) in cultured sorted splenic pDCs; type: cell-based, mouse
Description: pDCs were isolated from DPE-GFP×RAG1^−/− and cDCs were purified from naïve WT C57BL/6 mice, respectively. DPE-GFP×RAG1^−/− mice underwent subcutaneous injection of 5×10^6 B16 murine Flt3L-secreting melanoma tumor cells. 10-14 days later, mice were euthanized; spleens were harvested, and mechanically disturbed using a 5 ml syringe plunger and were filtered through a […] cell strainer (BD Falcon). Next, after incubation with ice-cold ammonium chloride (ACK) lysis buffer (Biofluids, Rockville, Md.) for 1 minute to remove contaminating RBCs, cells were washed with PBS. GFP-tagged pDCs were sorted via Moflo Cell Sorter (Beckman Coulter, Brea, Calif.). For obtaining pDCs for co-culturing TGCs with different densities of pDCs, as well as for flow cytometry and presence of NGF mRNA on GFP-tagged splenic pDCs, and comparing the NGF mRNA content in pDCs and cDCs, naïve DPE-GFP×RAG1^−/− mice were used. cDCs were purified using CD11c MicroBeads (Miltenyi Biotec) according to the manufacturer's instruction, with a purity of more than 85%.
as §1, §3

Row | Compound | median fluorescent intensity of endostatin staining in pDCs [1] | percentage of endostatin-secreting pDCs [1] | phosphorylation of CREB (phospho-CREB normalized to β-actin) (sorted splenic pDCs [2]; splenic pDCs, 1 μg/ml Imiquimod) | relative mRNA levels of NGF (corneal pDCs) | CREB mRNA level (corneal pDCs; ocular inoculation of 10 μg, vs control inoculation) | neurite outgrowth in TGC mono-culture ([3]; TGCs alone, 1, 5 or 10 μg/ml Imiquimod) | neurite outgrowth in pDC and TGC co-culture ([3]; TGCs with 8,000 pDCs/well in transwells, 1, 5 or 10 μg/ml Imiquimod) | CREB transcription (relative mRNA) (sorted corneal pDCs) | relative mRNA level of NGF (sorted corneal pDCs) | NGF relative mRNA level (sorted splenic pDCs [4]; splenic GFP-tagged pDCs, 3 days, 1, 5 and 10 μg/ml Imiquimod) | CREB relative mRNA level (sorted splenic pDCs [4]; splenic GFP-tagged pDCs, 3 days, different concentrations of Imiquimod) | relative NGF mRNA level (sorted splenic pDCs [4]; splenic pDCs, 1 μg/ml Imiquimod, 3 days) | phosphorylation of CREB (phospho-CREB normalized to β-actin) (sorted splenic pDCs [2]; splenic pDCs pre-treated 1 hour with 10 μM SB 203580, then 1 μg/ml Imiquimod, in comparison to control) | relative NGF mRNA level (sorted splenic pDCs [4]; splenic pDCs pre-treated 1 hour with 10 μM SB 203580, then 1 μg/ml Imiquimod, 3 days)
1 | CC(C)Cn1cnc2c(N)nc3ccccc3c21 [Imiquimod] | increases | increases the percentage of endostatin-secreting | 3.8±1.5 fold increase | 7.3±1.1 fold increase | higher CREB mRNA levels | does not significantly enhance neurite outgrowth | enhances neurite outgrowth induced by pDCs | increases transcription of CREB | 2.6±0.7 fold increase | dose dependent increase | dose-dependent increase | 2.0±0.6 fold increase |  | 
2 | C[S+]([O-])c1ccc(-c2nc(-c3ccncc3)c(-c3ccc(F)cc3)[nH]2)cc1 (stereo not shown) [SB 203580] |  |  |  |  |  |  |  |  |  |  |  |  | 0.5±0.2 fold change | 0.4±0.1 fold change
3 | phosphorothioate CpG 1826 oligonucleotide [CpG-ODN] | increases | increases the percentage of endostatin-secreting |  | 1.8±1.6 fold increase |  |  |  | does not result in significant escalation in CREB transcription | did not result in increased NGF mRNA transcription |  |  |  |  | 

Reference: patent publication US20220096526A1, “METHODS AND COMPOSITIONS FOR THE TREATMENT AND PREVENTION OF OCULAR DISEASES AND CONDITIONS” (Tufts Medical Center, Inc., priority 2019, published 2022)
